In patent publication US5663295A, “Opioid peptides” (Biomeasure Inc., priority 1994, dated 1997):

What was measured:
Human NSLC A549 = experiment: Subcutaneous tumor assay, human non-small cell lung cancer A549 xenografts; format: in vivo, athymic nude mice
Experimental: Table 5 compares the antitumor activity of an opioid BIM-38009 versus methadone. A subcutaneous tumor assay was used in which xenografts of the human non-small cell lung cancer were implanted s.c. in athymic nude mice. Test compounds were administered s.c. or i.p., twice daily, from day 4 post tumor implantation to day 35. The results are reported as means±s.e.m. on 8 animals per group. For structure of BIM-38009, see above.

μ receptor = experiment: In vitro receptor binding, μ receptor, radioligand DAGO; set-up: species or system guinea-pig or rat; conditions: forebrain membranes, 25° C., 60 min
Experimental: (§1) The following procedure was used to determine the ability of various opioid peptides to inhibit binding at opioid receptors. Crude membranes were prepared by homogenization of guinea-pig or rat forebrain samples in 20 ml of ice-cold 50 mM Tris-HCl with a Brinkman Polytron (setting 6, 15 sec.). Buffer was added to obtain a final volume of 40 ml, and the homogenate centrifuged in a Sorval SS-34 rotor at 39,000 g for 10 min. at 0°-4° C. The resulting supernatant was decanted and discarded. The pellet was rehomogenized in ice-cold buffer, pre-incubated at 37° C. for 45 min., diluted, and centrifuged as before. The final pellet was resuspended in 50 mM Tris HCl and held on ice for the receptor binding assay.
(§2) Aliquots of the washed membrane preparation (described above) were incubated in 50 mM Tris HCl at a total volume of 2.0 ml at 25° C. with an opioid receptor ligand (see below) and various concentrations of the unlabeled test compounds. Mu and kappa receptor assays were incubated for 60 minutes. […] At the end of the incubation periods, the assays were terminated by rapid filtration though Whatman GF/B glass fiber filters, and the bound radioactivity trapped on the filters counted by liquid scintillation spectrometry. For each of the three receptor subtypes, specific binding was calculated as the total radioligand bound minus that bound in the presence of 1000 nM levallorphan. […]

δ receptor = experiment: In vitro receptor binding, δ receptor, radioligand DPPE; set-up: species or system guinea-pig or rat; conditions: forebrain membranes, 25° C., 40 min
Experimental: as §1, §2

κ receptor = experiment: In vitro receptor binding, κ receptor, radioligand U69,593; set-up: species or system guinea-pig or rat; conditions: forebrain membranes, 25° C., 60 min
Experimental: as §1, §2

## CCC(=O)C(CC(C)N(C)C)(c1ccccc1)c1ccccc1 (centres unmarked) [Methadone]
Human NSLC A549; A549 xenograft s.c., treatment days 4-35, mean ± s.e.m., 8 animals per group
  Tumor Weight (mg) (Day 34): 337 ± 57 mg
Human NSLC A549; A549 xenograft, tumor weight Day 34, treated versus control
  & T/C: 110

## C[C@@H](NC(=O)[C@@H](N)Cc1ccc(O)cc1)C(=O)NCC(=O)N[C@@H](CCc1ccccc1)C(N)=O [BIM-38046, tyrosyl-D-alanyl-glycyl-homophenylalanine amide]
μ receptor
  Ki: 2.92 ± 1.12 nM
δ receptor
  Ki: 72.7 nM
κ receptor
  Ki: 849 nM
